The target in one series is Prolyl hydroxylase EGLN3 (Homo sapiens, UniProt Q9H6Z9). The series is described as follows: Inhibition of human EGLN3 by TR-FRET assay.
For another series, the target named is D(1A) dopamine receptor (Homo sapiens, UniProt P21728). The series is described as follows: Antagonist activity at human dopamine 1 receptor by TR-FRET assay. It is filed as functional.
In another series the target is Mu-type opioid receptor (Homo sapiens, UniProt P35372). The series is described as follows: Antagonist activity at human OPRM-1 by SPA. It is filed as functional.
Sequence of Mu-type opioid receptor (P35372 whole entry): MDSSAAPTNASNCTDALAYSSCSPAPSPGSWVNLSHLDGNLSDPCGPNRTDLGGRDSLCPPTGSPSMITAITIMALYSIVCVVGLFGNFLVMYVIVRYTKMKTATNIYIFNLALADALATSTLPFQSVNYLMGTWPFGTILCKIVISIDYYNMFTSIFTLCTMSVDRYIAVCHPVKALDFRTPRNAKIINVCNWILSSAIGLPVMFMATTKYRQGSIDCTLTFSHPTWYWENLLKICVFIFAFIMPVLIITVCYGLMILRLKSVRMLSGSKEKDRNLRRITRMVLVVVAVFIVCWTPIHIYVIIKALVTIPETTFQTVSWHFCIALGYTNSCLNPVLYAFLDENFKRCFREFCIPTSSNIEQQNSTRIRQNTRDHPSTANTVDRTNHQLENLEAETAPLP
The target in another series is Histone deacetylase 5 (Homo sapiens, UniProt Q9UQL6). The experiment in a line: Inhibition of human HDAC5 by FLINT assay.
Series [1] addresses Voltage-dependent L-type calcium channel subunit alpha-1C (Homo sapiens, UniProt Q13936). The experiment in a line: Antagonist activity at human CaV1.2 (L-type) by intracellular Ca fluorescence assay. The format is cell-based.
In series [2] the target is Prostaglandin G/H synthase 2 (Homo sapiens, UniProt P35354). The experiment in a line: Inhibition of human COX-2 by FLINT assay.
Sequence of Prostaglandin G/H synthase 2 (P35354 whole entry): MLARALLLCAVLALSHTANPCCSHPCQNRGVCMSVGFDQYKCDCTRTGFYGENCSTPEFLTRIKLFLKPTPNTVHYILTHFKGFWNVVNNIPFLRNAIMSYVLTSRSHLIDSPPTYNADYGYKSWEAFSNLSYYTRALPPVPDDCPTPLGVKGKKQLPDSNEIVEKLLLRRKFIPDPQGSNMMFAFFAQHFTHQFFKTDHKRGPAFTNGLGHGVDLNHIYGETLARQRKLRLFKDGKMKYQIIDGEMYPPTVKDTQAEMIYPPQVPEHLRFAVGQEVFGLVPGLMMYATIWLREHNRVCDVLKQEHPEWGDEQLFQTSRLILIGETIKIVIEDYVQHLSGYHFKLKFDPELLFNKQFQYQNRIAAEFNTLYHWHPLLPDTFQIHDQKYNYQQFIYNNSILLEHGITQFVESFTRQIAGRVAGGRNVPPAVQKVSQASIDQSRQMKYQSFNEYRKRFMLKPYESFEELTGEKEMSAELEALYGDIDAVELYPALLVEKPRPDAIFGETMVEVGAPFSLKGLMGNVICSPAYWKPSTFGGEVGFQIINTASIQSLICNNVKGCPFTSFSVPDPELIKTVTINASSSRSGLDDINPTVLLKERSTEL
In a further series the target is hERG (KCNH2) (Homo sapiens, UniProt Q12809). The experiment in a line: Blockade of human KCNH2 by electrophysiology assay. It is filed as toxicity.
Sequence of hERG (KCNH2) (Q12809 whole entry): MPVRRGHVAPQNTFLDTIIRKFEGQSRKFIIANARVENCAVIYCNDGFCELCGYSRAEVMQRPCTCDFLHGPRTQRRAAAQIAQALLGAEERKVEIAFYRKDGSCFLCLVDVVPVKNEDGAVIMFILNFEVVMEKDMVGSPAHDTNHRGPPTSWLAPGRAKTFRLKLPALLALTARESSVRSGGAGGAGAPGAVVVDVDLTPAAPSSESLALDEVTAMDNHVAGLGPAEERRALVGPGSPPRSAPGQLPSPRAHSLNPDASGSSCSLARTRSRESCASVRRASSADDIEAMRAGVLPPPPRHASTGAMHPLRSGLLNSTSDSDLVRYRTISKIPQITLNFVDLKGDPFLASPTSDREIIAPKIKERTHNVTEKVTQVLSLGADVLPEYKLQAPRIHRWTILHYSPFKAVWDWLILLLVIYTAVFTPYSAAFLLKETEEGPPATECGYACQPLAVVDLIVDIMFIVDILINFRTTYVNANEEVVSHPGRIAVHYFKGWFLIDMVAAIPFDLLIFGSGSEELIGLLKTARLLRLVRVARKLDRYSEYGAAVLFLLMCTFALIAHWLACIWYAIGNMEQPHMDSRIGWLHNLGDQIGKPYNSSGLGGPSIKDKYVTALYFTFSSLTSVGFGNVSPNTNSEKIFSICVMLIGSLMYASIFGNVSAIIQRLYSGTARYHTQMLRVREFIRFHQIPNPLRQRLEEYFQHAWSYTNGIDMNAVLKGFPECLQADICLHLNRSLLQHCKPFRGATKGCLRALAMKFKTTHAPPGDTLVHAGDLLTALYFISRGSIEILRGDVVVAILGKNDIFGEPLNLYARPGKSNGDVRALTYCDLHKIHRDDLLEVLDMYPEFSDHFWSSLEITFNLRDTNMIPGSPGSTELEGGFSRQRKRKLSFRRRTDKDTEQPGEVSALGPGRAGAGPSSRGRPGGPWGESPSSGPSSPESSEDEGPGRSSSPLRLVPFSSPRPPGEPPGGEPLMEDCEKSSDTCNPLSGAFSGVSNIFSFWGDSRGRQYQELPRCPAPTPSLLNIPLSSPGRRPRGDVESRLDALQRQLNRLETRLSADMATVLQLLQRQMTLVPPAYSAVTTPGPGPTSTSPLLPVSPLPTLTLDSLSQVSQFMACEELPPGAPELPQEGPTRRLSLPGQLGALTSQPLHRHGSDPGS
Series [3] addresses T1, Muscarinic acetylcholine receptor M1 (Homo sapiens, UniProt P11229).
T1 sequence (P11229 whole entry): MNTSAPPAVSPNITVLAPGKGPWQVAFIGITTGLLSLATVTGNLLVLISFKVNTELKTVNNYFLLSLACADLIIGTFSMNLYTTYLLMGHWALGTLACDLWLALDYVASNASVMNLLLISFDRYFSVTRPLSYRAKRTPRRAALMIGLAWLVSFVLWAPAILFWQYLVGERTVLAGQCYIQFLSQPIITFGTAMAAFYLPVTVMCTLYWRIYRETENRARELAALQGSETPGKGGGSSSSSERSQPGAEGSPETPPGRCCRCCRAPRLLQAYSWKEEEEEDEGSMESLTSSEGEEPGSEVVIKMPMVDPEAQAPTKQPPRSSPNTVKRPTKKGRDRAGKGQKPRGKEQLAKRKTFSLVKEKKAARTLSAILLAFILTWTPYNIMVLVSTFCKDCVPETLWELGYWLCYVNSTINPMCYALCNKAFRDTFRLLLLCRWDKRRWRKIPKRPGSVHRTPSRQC
The series is described as follows: Agonist activity at human CHRM1 by intracellular Ca fluorescence assay. The format is functional, cell-based.

The test system of series [4] is Macrophage. The experiment in a line: Cytotoxicity against LPS-induced human primary macrophages assessed as effect on cell viability measured after 4 hrs by WST-1 assay. It is filed as toxicity, cell-based.
Series [5] addresses T2, Muscarinic acetylcholine receptor M2 (Homo sapiens, UniProt P08172).
T2 sequence (P08172 whole entry): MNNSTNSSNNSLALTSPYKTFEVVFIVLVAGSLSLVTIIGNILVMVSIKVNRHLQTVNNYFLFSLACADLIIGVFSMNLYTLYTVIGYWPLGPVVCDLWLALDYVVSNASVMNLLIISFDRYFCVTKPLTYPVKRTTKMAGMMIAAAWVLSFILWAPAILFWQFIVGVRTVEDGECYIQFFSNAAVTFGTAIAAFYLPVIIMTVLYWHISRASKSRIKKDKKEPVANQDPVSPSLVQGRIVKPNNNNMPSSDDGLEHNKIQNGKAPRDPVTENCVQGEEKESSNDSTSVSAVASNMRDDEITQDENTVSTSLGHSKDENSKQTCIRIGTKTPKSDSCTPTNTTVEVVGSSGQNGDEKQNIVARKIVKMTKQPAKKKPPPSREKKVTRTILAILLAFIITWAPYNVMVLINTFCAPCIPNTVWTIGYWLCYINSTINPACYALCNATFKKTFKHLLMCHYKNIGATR
The experiment in a line: Antagonist activity at human CHRM2 by intracellular Ca fluorescence assay. The format is functional, cell-based.

The target of series [6] is Amine oxidase [flavin-containing] B (Homo sapiens, UniProt P27338). The series is described as follows: Inhibition of human MAOB by FLINT assay.
For the next series, the target named is PXR (NR1I2) (Homo sapiens, UniProt O75469). The experiment in a line: Agonist activity at human PXR by luciferase reporter assay.
Sequence of PXR (NR1I2) (O75469 whole entry): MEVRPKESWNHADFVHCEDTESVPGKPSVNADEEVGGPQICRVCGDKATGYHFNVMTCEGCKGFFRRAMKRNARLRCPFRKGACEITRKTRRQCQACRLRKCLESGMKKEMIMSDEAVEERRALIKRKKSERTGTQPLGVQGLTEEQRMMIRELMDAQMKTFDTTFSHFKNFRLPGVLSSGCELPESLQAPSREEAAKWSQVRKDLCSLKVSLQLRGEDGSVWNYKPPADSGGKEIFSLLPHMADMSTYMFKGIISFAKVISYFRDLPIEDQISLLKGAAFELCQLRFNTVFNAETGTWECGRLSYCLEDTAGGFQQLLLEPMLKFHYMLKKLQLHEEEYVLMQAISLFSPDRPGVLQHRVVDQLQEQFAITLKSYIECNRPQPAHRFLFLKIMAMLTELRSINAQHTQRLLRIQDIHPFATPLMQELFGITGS
Series [7] deals with Kappa-type opioid receptor (Homo sapiens, UniProt P41145). The experiment in a line: Agonist activity at human OPRK-1 by SPA. The format is functional.
Sequence of Kappa-type opioid receptor (P41145 whole entry): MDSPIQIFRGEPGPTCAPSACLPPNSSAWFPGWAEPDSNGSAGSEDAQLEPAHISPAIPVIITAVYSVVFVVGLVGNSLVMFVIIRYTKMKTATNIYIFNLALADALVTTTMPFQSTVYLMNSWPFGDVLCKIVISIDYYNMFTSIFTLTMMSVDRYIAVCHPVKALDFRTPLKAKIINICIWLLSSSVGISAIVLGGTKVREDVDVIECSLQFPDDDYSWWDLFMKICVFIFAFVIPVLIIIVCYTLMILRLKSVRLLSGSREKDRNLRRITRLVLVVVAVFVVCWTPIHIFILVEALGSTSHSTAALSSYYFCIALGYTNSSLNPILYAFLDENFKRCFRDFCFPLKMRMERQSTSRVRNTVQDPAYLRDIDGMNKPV
In series [8] the target is Protein deacetylase HDAC6 (Homo sapiens, UniProt Q9UBN7). The series is described as follows: Inhibition of human HDAC6 by FLINT assay.
Sequence of Protein deacetylase HDAC6 (Q9UBN7 whole entry): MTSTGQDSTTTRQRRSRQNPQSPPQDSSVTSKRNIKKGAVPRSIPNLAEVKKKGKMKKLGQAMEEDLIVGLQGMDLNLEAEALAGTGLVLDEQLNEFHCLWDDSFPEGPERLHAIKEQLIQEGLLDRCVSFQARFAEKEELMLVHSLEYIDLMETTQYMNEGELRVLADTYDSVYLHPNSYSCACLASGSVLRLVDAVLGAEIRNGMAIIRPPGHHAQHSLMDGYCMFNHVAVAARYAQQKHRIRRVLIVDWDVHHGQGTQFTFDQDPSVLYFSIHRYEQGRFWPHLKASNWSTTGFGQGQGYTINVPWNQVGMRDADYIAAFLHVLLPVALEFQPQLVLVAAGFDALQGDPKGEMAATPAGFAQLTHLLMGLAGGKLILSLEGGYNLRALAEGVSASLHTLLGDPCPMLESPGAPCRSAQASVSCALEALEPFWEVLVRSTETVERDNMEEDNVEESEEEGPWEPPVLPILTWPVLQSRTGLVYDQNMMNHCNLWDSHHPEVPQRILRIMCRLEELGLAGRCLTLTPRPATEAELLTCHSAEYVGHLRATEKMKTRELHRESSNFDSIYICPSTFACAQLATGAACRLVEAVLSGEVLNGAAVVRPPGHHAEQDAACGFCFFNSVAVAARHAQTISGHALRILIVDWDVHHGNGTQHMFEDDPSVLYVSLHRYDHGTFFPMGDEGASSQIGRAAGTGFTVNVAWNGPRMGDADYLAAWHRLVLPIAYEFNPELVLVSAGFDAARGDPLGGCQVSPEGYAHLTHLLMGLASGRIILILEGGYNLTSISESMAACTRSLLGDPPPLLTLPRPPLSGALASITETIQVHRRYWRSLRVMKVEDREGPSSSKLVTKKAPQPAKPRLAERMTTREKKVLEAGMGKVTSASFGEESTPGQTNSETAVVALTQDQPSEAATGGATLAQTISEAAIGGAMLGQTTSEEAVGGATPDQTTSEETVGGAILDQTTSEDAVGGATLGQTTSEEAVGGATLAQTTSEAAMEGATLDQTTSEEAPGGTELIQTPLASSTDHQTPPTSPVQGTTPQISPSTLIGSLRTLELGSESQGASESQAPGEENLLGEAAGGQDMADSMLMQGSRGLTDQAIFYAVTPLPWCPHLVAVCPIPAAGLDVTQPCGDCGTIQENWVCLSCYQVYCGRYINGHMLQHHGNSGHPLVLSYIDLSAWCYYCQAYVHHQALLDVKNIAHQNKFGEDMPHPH
Series [9] in a line: Antagonist activity at human 5-HT3 by intracellular Ca fluorescence assay. It is filed as cell-based.
Another series addresses Histone deacetylase 1 (Homo sapiens, UniProt Q13547). The series is described as follows: Inhibition of human HDAC1 by FLINT assay.
The test system of series [10] is Macrophage. The experiment in a line: Antiinflammatory activity in human primary macrophages assessed as effect on LPS-induced TXLNA gene expression at 30 uM measured after 2 hrs by RT-PCR array (reference value: 8115 a.u.). The format is functional.
Series [11] relates to Macrophage. The series is described as follows: Antiinflammatory activity in human primary macrophages assessed as effect on LPS-induced IL1B gene expression at 30 uM measured after 2 hrs by RT-PCR array (reference value: 15266918 a.u.). It is filed as functional.
The subject of series [12] is Macrophage. The series is described as follows: Antiinflammatory activity in human primary macrophages assessed as effect on LPS-induced IL10 gene expression at 30 uM measured after 2 hrs by RT-PCR array (reference value: 47621 a.u.). The format is functional.
Series [13] concerns Macrophage. The experiment in a line: Antiinflammatory activity in human primary macrophages assessed as effect on LPS-induced IL12A gene expression at 30 uM measured after 2 hrs by RT-PCR array (reference value: 7097 a.u.). The format is functional.
The subject of series [14] is Macrophage. The series is described as follows: Antiinflammatory activity in human primary macrophages assessed as effect on LPS-induced PDGFA gene expression at 30 uM measured after 2 hrs by RT-PCR array (reference value: 235 a.u.). The format is functional.
Series [15] relates to Macrophage. The series is described as follows: Antiinflammatory activity in human primary macrophages assessed as effect on LPS-induced IL1F6 gene expression at 30 uM measured after 2 hrs by RT-PCR array (reference value: 145 a.u.). It is filed as functional.
Series [16] concerns Macrophage. The series is described as follows: Antiinflammatory activity in human primary macrophages assessed as effect on LPS-induced IL15 gene expression at 30 uM measured after 2 hrs by RT-PCR array (reference value: 62425 a.u.). It is filed as functional.
In series [17] the test system is Macrophage. The experiment in a line: Antiinflammatory activity in human primary macrophages assessed as effect on LPS-induced IL1F10 gene expression at 30 uM measured after 2 hrs by RT-PCR array (reference value: 125 a.u.). The format is functional.
Series [18] relates to Macrophage. The series is described as follows: Antiinflammatory activity in human primary macrophages assessed as effect on LPS-induced BMP8B gene expression at 30 uM measured after 2 hrs by RT-PCR array (reference value: 1117 a.u.). It is filed as functional.
In series [19] the test system is Macrophage. The series is described as follows: Antiinflammatory activity in human primary macrophages assessed as effect on LPS-induced TNFRSF11B gene expression at 30 uM measured after 2 hrs by RT-PCR array (reference value: 1609 a.u.). It is filed as functional.
In series [20] the test system is Macrophage. The experiment in a line: Antiinflammatory activity in human primary macrophages assessed as effect on LPS-induced IFNA4 gene expression at 30 uM measured after 2 hrs by RT-PCR array (reference value: 28 a.u.). The format is functional.
Series [21] has as its system Macrophage. The experiment in a line: Antiinflammatory activity in human primary macrophages assessed as effect on LPS-induced GDF3 gene expression at 30 uM measured after 2 hrs by RT-PCR array (reference value: 134 a.u.). It is filed as functional.

Sequence of D(1A) dopamine receptor (P21728 whole entry): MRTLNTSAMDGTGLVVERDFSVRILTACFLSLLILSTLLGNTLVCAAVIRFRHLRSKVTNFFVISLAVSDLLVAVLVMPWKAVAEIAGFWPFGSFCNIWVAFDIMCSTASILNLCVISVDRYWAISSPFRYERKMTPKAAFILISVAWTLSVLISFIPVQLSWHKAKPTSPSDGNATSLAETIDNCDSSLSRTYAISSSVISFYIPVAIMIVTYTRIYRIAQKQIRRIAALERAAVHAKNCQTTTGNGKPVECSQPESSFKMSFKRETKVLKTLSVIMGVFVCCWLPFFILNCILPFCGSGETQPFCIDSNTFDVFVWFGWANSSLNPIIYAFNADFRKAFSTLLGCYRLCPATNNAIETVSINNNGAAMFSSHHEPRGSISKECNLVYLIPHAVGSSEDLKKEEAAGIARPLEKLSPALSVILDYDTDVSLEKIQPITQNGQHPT
Sequence of Prolyl hydroxylase EGLN3 (Q9H6Z9 whole entry): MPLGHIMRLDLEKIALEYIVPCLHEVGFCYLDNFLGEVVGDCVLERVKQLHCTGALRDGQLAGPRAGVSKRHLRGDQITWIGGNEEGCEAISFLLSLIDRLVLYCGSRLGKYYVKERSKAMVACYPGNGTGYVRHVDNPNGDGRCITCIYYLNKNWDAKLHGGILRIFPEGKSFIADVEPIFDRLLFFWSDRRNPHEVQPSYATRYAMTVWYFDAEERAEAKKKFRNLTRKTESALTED

For `O=C(O)CCNc1cc(N2CCc3ccccc3CC2)nc(-c2ccccn2)n1`, the XC50 on Prolyl hydroxylase EGLN3 is greater than 50 µM; on D(1A) dopamine receptor, greater than 32 µM; at Mu-type opioid receptor, 50 µM; at Histone deacetylase 5, greater than 300 µM; in series [1] it was greater than 16 µM; in series [2] it was greater than 63 µM. For the same molecule, the XC50 was 8 µM at hERG (KCNH2); greater than 16 µM in [3]; greater than 16 µM in series [5]; 25 µM in [6]; greater than 50 µM on PXR (NR1I2); greater than 100 µM in [7]. Moreover, the XC50 is greater than 300 µM in series [8], greater than 4.3 µM in series [9] and greater than 300 µM on Histone deacetylase 1. Further, the Activity entry in the series with Macrophage [4] is on record as “Non-Toxic”.

`CCOC(=O)CCNc1cc(N2CCc3ccccc3CC2)nc(-c2cccnc2)n1`: the Activity was determined as 6886 a.u in the series with Macrophage [10]; 10300355 a.u in the series on Macrophage [11]; 31748 a.u in the series with Macrophage [12]; 5021 a.u in the series with Macrophage [13]; 239 a.u in the series on Macrophage [14]; 121 a.u in the series with Macrophage [15]. For the same molecule, the Activity entry in the series with Macrophage [4] is reported as “Non-Toxic”; with Macrophage [16] it was 40115 a.u; with Macrophage [17], 102 a.u; with Macrophage [18] it was 1235 a.u; with Macrophage [19] it was 784 a.u; in the series with Macrophage [20], 1 a.u. Besides, the Activity in the series on Macrophage [21] turned out to be 151 a.u.

Take `CCOC(=O)CCNc1cc(N2CCc3ccccc3CC2)nc(-c2ccccn2)n1`: the Activity in the series on Macrophage [10] came out at 5959 a.u; in the series with Macrophage [11], 3032303 a.u; in the series with Macrophage [12], 4765 a.u; in the series with Macrophage [13], 304 a.u; in the series with Macrophage [14], 392 a.u; in the series with Macrophage [15], 1 a.u. Further, the Activity entry with Macrophage [4] is listed as “Non-Toxic”; in the series on Macrophage [16], 4562 a.u; in the series with Macrophage [17], 11 a.u; in the series on Macrophage [18], 820 a.u; with Macrophage [19], 267 a.u; with Macrophage [20], 25 a.u. Further, in the series on Macrophage [21], the Activity is 59 a.u.

As to `O=C(O)CCNc1cc(N2CCc3ccccc3CC2)nc(-c2cccnc2)n1`, the XC50 on Prolyl hydroxylase EGLN3 is greater than 50 µM; on D(1A) dopamine receptor, greater than 32 µM; at Mu-type opioid receptor, 63 µM; on Histone deacetylase 5, greater than 300 µM; in [1], greater than 16 µM; in series [2] it was greater than 63 µM. The XC50 on hERG (KCNH2) is greater than 50 µM; in [3], greater than 16 µM; in series [5] it was greater than 16 µM; in series [6], 25 µM; at PXR (NR1I2), 10 µM; in series [7], greater than 100 µM. The XC50 was greater than 300 µM in series [8], 25 µM in [9] and greater than 300 µM at Histone deacetylase 1. For the same molecule, the Activity entry in the series with Macrophage [4] is “Non-Toxic”.

Source of the values: ChEMBL document CHEMBL5678807, “A selective jumonji H3K27 demethylase inhibitor modulates the proinflammatory macrophage response” (Nature, 2012).
